Laboratory results as given in patent US20150079105A1, “TREATMENT OF ACUTE INFLAMMATION IN THE RESPIRATORY TRACT” (UCL Business PLC, priority 2012, published 2015).
Entries after “also recorded” stand apart in the source; their conditions may differ.

Legend:
Assay type in all cases: in vivo
[1] = system: TNF, IL-6, CXCL1, CXCL2, CCL2, CCL7; assay: Cytokine and chemokine protein levels in lung homogenates of LPS challenged mice (Luminex bead array, ELISA); conditions: 5 mg/kg i.p. 30 min after LPS, 3 h
Procedure: FIG. 8. Mice were killed three hours after LPS (125 μg/kg i.n.) or saline challenge with or without the PAR1 antagonist RWJ-58259 (5 mg/kg) dosed i.p. after 30 min. Lungs were removed and homogenized. Levels of TNF (A), IL-6 (B) CXCL1 (C), and CXCL2 (D) protein were measured in lung homogenates using a Luminex bead array. Protein levels of CCL2 (H) and CCL7 (I) were measured from lung homogenates by ELISA. Mean and sem values of n=5 per group are shown. Data were analysed by one way ANOVA with Newman-Keuls post hoc test: ***p<0.001, **p<0.01, *p<0.05. […]
Cytokine and chemokine levels were measured by ELISA.
In order to confirm the LDA analysis of mRNA expression, the level of protein in lung homogenates was measured.

[2] = system: 151 inflammatory mediators; assay: Low density array (LDA) of 151 inflammatory mediators, lung mRNA of LPS challenged mice; conditions: 5 mg/kg i.p. 30 min after LPS, 3 h
Procedure: FIG. 7. […] Lungs were removed, snap frozen and homogenised under liquid nitrogen before RNA was isolated and run on a low density gene array consisting of 151 inflammatory markers (A). […] Of these genes the pro-inflammatory cytokines TNF and IL-6, and the neutrophil chemoattractants CXCL1 and CXCL2, in addition to the chemokines CCL2 and CCL7 are further depicted (D). Data were analysed by one way ANOVA with Newman-Keuls Post Hoc test:, **p<0.01, *p<0.05.
In order to identify potential PAR1-regulated cytokine/chemokine candidates involved in LPS-induced ALI, a low density array (LDA) designed to profile 151 inflammatory mediators was used (FIG. 7a, FIG. 9). Total RNA was extracted from pulverised frozen pulverised lung using TRIzol (see manufacture's protocol (Invitrogen)), DNase treated using a DNA free kit (Ambion) and cDNA synthesised from 1 μg RNA/per sample using a Superscript kit (Invitrogen). Expression levels of known inflammatory mediators were analysed in cDNA using Taqman low density array qPCR chips and normalized to 18 s. Transcript data was analysed using the Gene Expression Similarity Suite (Genesis) software^51 and data represented as a heat map following log2 transformation and normalisation. Relative fold-difference in expression was calculated using the ΔΔT method with the saline treated group as the calibrator reference. […] The differential gene expression profile included the upregulation of several genes known to be important for the generation of inflammatory responses, such as TNF, interleukins, CXC chemokines and CC chemokines, including CCL2, CCL3, CCL4, CCL7, CCL22, CXCL1, CXCL2, CXCL10, CXCL13 and CX3CL1.

[3] = system: S. pneumoniae; assay: S. pneumoniae challenge of mice (bacteria-induced ALI and host defense); conditions: 5 mg/kg i.p. after 30 min
Procedure: FIG. 4. Mice were killed three hours after inoculation with S. pneumoniae (serotype 19, 50 μl/mouse, 5×10^6 CFU/mouse i.n.) with and without the PAR1 antagonist RWJ-58259 (5 mg/kg) dosed therapeutically i.p. after 30 min. Lungs were lavaged (1.5 ml PBS total) and total BAL fluid leukocytes (a) and neutrophils (b) were quantified. S. pneumoniae was recovered from lung homogenates and individual colonies counted (c). Panels show mean values for n=5/group from two separate experiments. Data were analysed by one way ANOVA with Neuman-Keuls Post Hoc test: ***p<0.0001, *p<0.05.
FIG. 5. Mice were killed three hours after inoculation with S. pneumoniae (serotype 2, clinical isolate D39, 50 μl/mouse, 5×10^6 CFU/mouse i.n.) with and without the PAR1 antagonist RWJ-58259 (5 mg/kg) dosed therapeutically i.p. after 30 min. Lungs were lavaged (1.5 ml PBS total) and total BAL fluid leukocytes (A), macrophages (B) and neutrophils (C) were quantified. Bronchoalveolar lavage fluid was collected and levels of thrombin-anti-thrombin (TAT) and serum albumin were quantified by ELISA (D and E). Panels show mean values for n=5/group from two separate experiments. Data were analysed by one way ANOVA with Neuman-Keuls Post Hoc test: ***p<0.0001, *p<0.05.
FIG. 6. Mice were killed three hours after inoculation with S. pneumoniae (serotype 2, clinical isolate D39, 50 μl/mouse, 5×10^6 CFU/mouse i.n.) with and without the PAR1 antagonist RWJ-58259 (5 mg/kg) dosed therapeutically i.p. after 30 min. Lungs were lavaged (1.5 ml PBS total) and bacterial colony forming units (cfu) counted after 3 h (A) and 24 h (B). Bacterial invasive disease was measured by cfu in the lung (C) and spleen (D) after 24 h. Data were analysed by one way ANOVA with Neuman-Keuls Post Hoc test: n.s. not significant. […]
In order to examine the influence of PAR1 during host defense and in a model of bacteria-induced ALI, mice were challenged with S. pneumoniae (5×10^6 CFU/mouse, i.n.), which is the most common infectious agent responsible for ALI. Mice were inoculated with 50 μl S. pneumoniae (serotype 19, 5×10^6 CFU/mouse i.n.). 3 hours later, animals were sacrificed (urethane i.p. […]), endotracheally cannulated and bronchoalveolar lavage performed (1.5 ml, PBS). Total and differential counts were quantified following cytospin and albumin levels measured by ELISA (Bethyl Laboratories Inc, USA).
PAR1 antagonism was also found to decrease the number of BAL macrophages (FIG. 5b). Bronchoalveolar lavage fluid was collected and levels of thrombin-anti-thrombin (TAT) and serum albumin were quantified by ELISA (FIG. 4d, e). […] Panels show mean values for n=5/group from two separate experiments. Data were analysed by one way ANOVA with Neuman-Keuls Post Hoc test: ***p<0.0001, *p<0.05. […]

[4] = system: LPS challenged mice; assay: LPS-induced acute lung inflammation in mice: BAL fluid cell counts, MPO, serum albumin
[5] = serotype 2, D39, after 24 hours
[6] = serotype 19, 5×10^6 CFU/mouse i.n., 3 h
[7] = 5 mg/kg i.p. 30 min after LPS 125 μg/kg i.n., 3 h after LPS, vs LPS alone
[8] = 5 mg/kg i.p. 30 min after LPS, 3 h

## NCC[C@H](NC(=O)[C@H](Cc1ccc(F)c(F)c1)NC(=O)Nc1ccc2c(CN3CCCC3)nn(Cc3c(Cl)cccc3Cl)c2c1)C(=O)NCc1ccccc1 [RWJ-58259]
[1]
  CCL2 protein level in lung homogenates: decreased
  CCL7 protein level in lung homogenates: decreased
[1]; listed as PAR1 antagonist
  CXCL1 protein level in lung homogenates: unaffected; also recorded: not affected
  CXCL2 protein level in lung homogenates: unaffected; also recorded: not affected
  IL-6 protein level in lung homogenates: did not attenuate; also recorded: not affected
  TNF protein level in lung homogenates: did not attenuate; also recorded: not affected
[2]
  CCL2 (MCP-1) mRNA expression in lung: decreased
  CCL7 (MCP-3) mRNA expression in lung: decreased
  CXCL1 mRNA expression in lung: unaffected
  CXCL2 mRNA expression in lung: unaffected
  IL-6 mRNA expression in lung: unaffected
  TNF mRNA expression in lung: unaffected
[2]; array of 151 markers
  number of genes (markers) with decreased expression following PAR1 antagonism: 25 genes
[3]; serotype 2, D39, 3 h
  PAR1 mediated disruption of the alveolar-capillary barrier (TAT and serum albumin in BAL fluid by ELISA): reduce
  number of BAL macrophages: decrease
[3]; serotype 2, D39, 24 hours
  S. pneumoniae colony counts recovered from BALF: unaffected
[3]; [5]
  bacterial invasive disease, cfu in the lung: unaffected
  bacterial invasive disease, cfu in the spleen: unaffected
[3]; serotype 2, D39, after three hours
  S. pneumoniae colony counts recovered from BALF: unaffected
[3]; [6]
  neutrophil accumulation (BAL fluid): reduced
  total cellular infiltration (BAL fluid leukocytes): reduced
[3]; serotype 19, 3 h
  S. pneumoniae colony counts recovered from whole lung (host defense): unaffected
[3]; serotype not stated, 3 h
  BAL fluid serum albumin following S. pneumoniae challenge: decreased
[4]; [7]
  neutrophil numbers in the airspaces (BAL fluid): significantly decreased
  total cell numbers in the airspaces (BAL fluid): significantly decreased
[4]; [8]
  Gr-1+(F4/80−) neutrophils recovered from BAL fluid and whole lung preparations, flow cytometry: a decrease
  LPS-induced neutrophil myeloperoxidase activity in lung homogenates: reduced
  macrophage numbers in BAL fluid: remained unchanged
[4]; 5 mg/kg i.p. 30 min after LPS, 3 h, vs LPS alone, listed as PAR1 antagonist
  serum albumin levels in BAL fluid (alveolar-capillary barrier disruption): significantly decreased; also recorded: significantly reduced
[4]; 5 mg/kg i.p. 30 min after LPS, 6 h following LPS challenge
  neutrophil recruitment: reduced
[4]; 5 mg/kg i.p. 30 min after LPS, 24 h following LPS challenge
  neutrophil recruitment: reduced
